Among the data in patent US8710056B2, “Pyridazine compounds for controlling invertebrate pests” (BASF SE, priority 2009, dated 2014) are mortality values, retold here.

What all share (format): in vivo
Experiment [1] relates to Vetch aphid (Megoura viciae). Nature of the experiment: Activity against vetch aphid, bean leaf disks in microtiterplates. Particulars: foliar, 144 h, test solution 2500 mg/L, 2.5 μl sprayed on bean leaf disks, 6 days. The method, then:
II.5 Activity Against Vetch Aphid (Megoura viciae)
The active compounds were formulated in 1:3 (vol:vol) DMSO: water with different concentrations of formulated compounds.
Bean leaf disks were placed into microtiterplates filled with 0.8% agar-agar and 2.5 ppm OPUS™. The leaf disks were sprayed with 2.5 μl of the test solution and 5 to 8 adult aphids were placed into the microtiterplates which were then closed and kept at 23±1° C. and 50±5% relative humidity under fluorescent light for 6 days. Mortality was assessed on the basis of vital, reproduced aphids. Aphid mortality and fecundity was then visually assessed.

Experiment [2] relates to Green peach aphid (Myzus persicae, mixed life stages). Put plainly: Activity against green peach aphid, foliar spray on infested bell pepper plants. Particulars: 120 h, determined after 5 days, read-out: mortality in comparison with untreated controls. The method, then:
II.2 Activity Against Green Peach Aphid (Myzus persicae, Mixed Life Stages)
(§1) The active compounds were formulated in cyclohexanone as a 10,0000 ppm solution supplied in 1.3 ml ABgene® tubes. These tubes were inserted into an automated electrostatic sprayer equipped with an atomizing nozzle and they served as stock solutions for which lower dilutions were made in 50% acetone:50% water (v/v). A nonionic surfactant (Kinetic®) was included in the solution at a volume of 0.01% (v/v).
Bell pepper plants at the first true-leaf stage were infested prior to treatment by placing heavily infested leaves from the main colony on top of the treatment plants. Aphids were allowed to transfer overnight to accomplish an infestation of 30-50 aphids per plant and the host leaves were removed. The infested plants were then sprayed by an automated electrostatic plant sprayer equipped with an atomizing spray nozzle. The plants were dried in the sprayer fume hood, removed, and then maintained in a growth room under fluorescent lighting in a 24-hr photoperiod at 25° C. and 20-40% relative humidity. Aphid mortality on the treated plants, relative to mortality on untreated control plants, was determined after 5 days.

Experiment [3] relates to Cotton aphids (Aphis gossypii). Nature of the experiment: Hydroponic test against cotton aphids, bare-root cotton plants. The settings on record: bare roots immersed 24 hours, assay 3 days, read-out: mortality in comparison with untreated controls. Here is the method: II.8 Activity in the Hydroponic Tests against Cotton Aphids (Aphis gossypii)
Cotton plants (Gossypium hirsutum, variety ‘Sure Grow 747’) are grown in the greenhouse from seed to the second true leaf stage (BBCH 12) in Scott's Metro-Mix® 360 (1-2 plants per 2¼″ square pot). Cotyledon leaves are removed and roots are rinsed in tap water until free of soil. The roots are kept moist under a layer of wet paper toweling until all plants have been prepared.
(§2) A 3,400 ppm stock solution is prepared of each test compound using reagent grade acetone as the solvent. Subsequent dilutions of 100 and 10 ppm are prepared from this stock with final dilutions in deionized water in 100 ml amber glass bottles. One bare root plant is placed in each bottle using a foam plug section to centrally secure the stem in the bottleneck. The bare roots are fully-immersed in the test suspensions. Host plants are placed in a plant growth room under continuous GroLux® fluorescent lighting (40W), for 24 hours at 25±2° C. and 20-40% RH.
After exposure of the bare roots to the test suspensions, pieces of cotton plants infested with cotton aphids (Aphis gossypii) are placed on top of the test foliage. Insects are allowed to transfer from the host leaves to accomplish an infestation of 40-50 insects per plant. […] Phytotoxic responses of the host plants are also recorded at this time.

The subject of experiment [4] is Cowpea aphid (Aphis craccivora). Nature of the experiment: Activity against cowpea aphid, spray on potted cowpea plants. Particulars: spray on colonized cowpea plants, population reduction assessed after 24, 72 and 120 hours, read-out: mortality in comparison with untreated controls. The method, then:
II.3 Activity Against Cowpea Aphid (Aphis craccivora)
The active compounds were formulated in 50:50 (vol:vol) acetone:water. The test solution was prepared at the day of use.
Potted cowpea plants colonized with 100-150 aphids of various stages were sprayed after the pest population had been recorded. Population reduction was assesed after 24, 72, and 120 hours.

For experiment [5], the system named is Green peach aphid (Myzus persicae). Put plainly: Activity against green peach aphid through systemic means, artificial diet in 96-well microtiter plates. Particulars: 72 h, read-out: mortality in comparison with untreated controls. From the text: II.6 Activity Against Green Peach Aphid (Myzus persicae)
For evaluating control of green peach aphid (Myzus persicae) through systemic means the test unit consisted of 96-well-microtiter plates containing liquid artificial diet under an artificial membrane.
The compounds were formulated using a solution containing 75% v/v water and 25% v/v DMSO. Different concentrations of formulated compounds were pipetted into the aphid diet, using a custom built pipetter, at two replications. After application, 5 to 8 adult aphids were placed on the artificial membrane inside the microtiter plate wells. The aphids were then allowed to suck on the treated aphid diet and incubated at about 23+1° C. and about 50+5% relative humidity for 3 days. Aphid mortality and fecundity was then visually assessed.

The subject of experiment [6] is Cotton aphid (Aphis gossypii, mixed life stages). Put plainly: Activity against cotton aphid, foliar spray on infested cotton plants. Particulars: 120 h, determined after 5 days, read-out: mortality in comparison with untreated controls. The method, then:
II.1 Activity Against Cotton Aphid (Aphis gossypii, Mixed Life Stages)
as §1
Cotton plants at the cotyledon stage were infested with aphids prior to treatment by placing a heavily infested leaf from the main aphid colony on top of each cotyledon. Aphids were allowed to transfer overnight to accomplish an infestation of 80-100 aphids per plant and the host leaf was removed. The infested plants were then sprayed by an automated electrostatic plant sprayer equipped with an atomizing spray nozzle. The plants were dried in the sprayer fume hood, removed from the sprayer, and then maintained in a growth room under fluorescent lighting in a 24-hr photoperiod at 25° C. and 20-40% relative humidity. Aphid mortality on the treated plants, relative to mortality on untreated control plants, was determined after 5 days.

The test system of experiment [7] is Green peach aphids (Myzus persicae). Put plainly: Hydroponic test against green peach aphids, bare-root green pepper plants. The settings on record: bare roots immersed 24 hours, assay 3 days, read-out: mortality in comparison with untreated controls. Here is the method: II.7.1 Activity in the Hydroponic Tests Against Green Peach Aphids (Myzus persicae)
Green pepper plants (Capsicum annuum L., variety ‘California Wonder’) are grown in the greenhouse from seed to the second true leaf stage (BBCH 12) in Scott's MetroMix® 360 (1-2 plants per 2¼″ square pot). Cotyledon leaves are removed and roots are rinsed in tap water until free of soil. The roots are kept moist under a layer of wet paper toweling until all plants have been prepared.
as §2
After exposure of the bare roots to the test suspensions, pieces of pepper plants infested with green peach aphid (Myzus persicae) are placed on top of the test foliage. Insects are allowed to transfer from the host leaves to accomplish an infestation of 40-50 insects per plant. […] Phytotoxic responses of the host plants are also recorded at this time.

The test system of experiment [8] is Vanda/Orchid thrips (Dichromothrips corbetti). Nature of the experiment: Activity against Vanda/orchid thrips, petal dip. The settings on record: orchid petals dipped, recorded after 72 hours, read-out: mortality in comparison with untreated controls. Here is the method: II.7 Activity Against Vanda/Orchid Thrips (Dichromothrips corbetti)
The active compounds were formulated as a 50:50 (vol:vol) acetone:water solution. Surfactant (Alkamuls EL 620) was added at the rate of 0.1% (vol/vol). Vanda orchids petals were cleaned, washed and air dried prior to spraying. Petals were dipped into the test solution for 3 seconds, air dried, placed inside a resealable plastic and inoculated with 20 adults. The treated petals were kept inside the holding room at 28-29° C. and relative humidity of 50-60%. Percent mortality was recorded after 72 hours.

Experiment [9] concerns Silverleaf whitefly (bemisia argentifolii, adult). Nature of the experiment: Activity against silverleaf whitefly, sprayed cotton plants. The settings on record: 72 h, whitefly adults, assessed 3 days after treatment, read-out: mortality in comparison with untreated controls. Here is the method:
II.4 Activity Against Silverleaf Whitefly (bemisia argentifolii, Adult)
as §1
Cotton plants at the cotyledon stage (one plant per pot) were sprayed by an automated electrostatic plant sprayer equipped with an atomizing spray nozzle. The plants were dried in the sprayer fume hood and then removed from the sprayer. Each pot was placed into a plastic cup and 10 to 12 whitefly adults (approximately 3-5 days old) were introduced. The insects were collected using an aspirator and 0.6 cm, nontoxic Tygon® tubing (R-3603) connected to a barrier pipette tip. The tip, containing the collected insects, was then gently inserted into the soil containing the treated plant, allowing insects to crawl out of the tip to reach the foliage for feeding. Cups were covered with a reusable screened lid (150-micron mesh polyester screen PeCap from Tetko, Inc.). […] Mortality was assessed 3 days after treatment, compared to untreated control plants.

For the molecule `CN(C(=O)c1conc1C1CC1)c1ccnnc1` [Compound 5, 3-Cyclopropyl-isoxazole-4-carboxylic acid methyl-pyridazin-4-yl-amide], the mortality at 2500 µg/mL in [1] is at least 90%. The mortality at 300 ppm in experiment [2] was at least 75%; in [4], at least 90%; in experiment [6], at least 75%; in experiment [9], at least 75%. Also, the mortality at 100 ppm in experiment [3] and in [7] was at least 75% each time. In experiment [5], the mortality at 2500 ppm came out at 100%. In addition, the mortality at 500 ppm in [8] was at least 50%.

In experiment [1], `O=C(Nc1ccnnc1)c1conc1C1CC1` [Compound 4, 3-Cyclopropyl-isoxazole-4-carboxylic acid pyridazin-4-ylamide] came in with a mortality at 2500 µg/mL of at least 90%. For the same molecule, the mortality at 300 ppm is at least 75% in experiment [2], at least 90% in experiment [4], at least 75% in experiment [6] and at least 75% in [9]. Also, the mortality at 100 ppm in [3] and in [7] was at least 75% in each case. The mortality at 2500 ppm in experiment [5] is 100%. Besides, the mortality at 500 ppm in [8] is at least 50%.
